In patent US20140249135A1, “PIM KINASE INHIBITORS AND METHODS OF THEIR USE” (NOVARTIS AG, priority 2007, published 2014):
Where two headings read alike, the source gives them in different places.

Columns and labels:
[1] = target: Pim1 kinase (Homo sapiens, UniProt P11309); test: Pim1 ATP depletion assay; type: biochemical;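 also: Luciferase-luciferin luminescence readout of residual ATP after PIM1 transfers phosphate to a peptide substrate, 40 µM ATP added, reaction run to roughly half ATP consumption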
[2] = tested on: HEL 92.1.7 cells; test: Cell proliferation assay (CellTiter-Glo), HEL 92.1.7; type: cell-based; conditions: Homo sapiens
How it was run: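 CellTiter-Glo luminescence was read after 3-day compound exposure at 37 °C of cells plated at 1000/well in RPMI1640 with 10% FBS. Signal was normalised between DMSO-treated and control-compound-treated wells. EC50 is the concentration giving 50% of maximal effect.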

[3] = target: Pim2 kinase (Homo sapiens, UniProt Q9P1W9); test: Pim2 ATP depletion assay; type: biochemical;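 also: Luciferase-based luminescent readout of ATP remaining after PIM2 phosphorylates a BAD peptide, final 5 nM enzyme, 4 µM ATP, 10 µM peptide, 2.5% DMSO, run to roughly half ATP consumption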
[4] = target: KDR kinase (Homo sapiens, UniProt P35968); test: KDR AlphaScreen assay; conditions: KDR IC50 (μM)
[5] = target: Pim3 kinase (Homo sapiens, UniProt Q86V86); test: Pim3 ATP depletion assay; type: biochemical
[6] = target: T1, human full length PKCE enzyme (Homo sapiens, UniProt Q02156); test: In vitro PKCE assay; type: biochemical; conditions: 10 nM enzyme, 40 uM peptide substrate, 20 uM ATP, KinaseGlo Plus readout; read-out: PKCε IC50
T1 construct: human full length PKCE enzyme purchased from InVitrogen; purchased InVitrogen
T1 sequence (Q02156 1-737): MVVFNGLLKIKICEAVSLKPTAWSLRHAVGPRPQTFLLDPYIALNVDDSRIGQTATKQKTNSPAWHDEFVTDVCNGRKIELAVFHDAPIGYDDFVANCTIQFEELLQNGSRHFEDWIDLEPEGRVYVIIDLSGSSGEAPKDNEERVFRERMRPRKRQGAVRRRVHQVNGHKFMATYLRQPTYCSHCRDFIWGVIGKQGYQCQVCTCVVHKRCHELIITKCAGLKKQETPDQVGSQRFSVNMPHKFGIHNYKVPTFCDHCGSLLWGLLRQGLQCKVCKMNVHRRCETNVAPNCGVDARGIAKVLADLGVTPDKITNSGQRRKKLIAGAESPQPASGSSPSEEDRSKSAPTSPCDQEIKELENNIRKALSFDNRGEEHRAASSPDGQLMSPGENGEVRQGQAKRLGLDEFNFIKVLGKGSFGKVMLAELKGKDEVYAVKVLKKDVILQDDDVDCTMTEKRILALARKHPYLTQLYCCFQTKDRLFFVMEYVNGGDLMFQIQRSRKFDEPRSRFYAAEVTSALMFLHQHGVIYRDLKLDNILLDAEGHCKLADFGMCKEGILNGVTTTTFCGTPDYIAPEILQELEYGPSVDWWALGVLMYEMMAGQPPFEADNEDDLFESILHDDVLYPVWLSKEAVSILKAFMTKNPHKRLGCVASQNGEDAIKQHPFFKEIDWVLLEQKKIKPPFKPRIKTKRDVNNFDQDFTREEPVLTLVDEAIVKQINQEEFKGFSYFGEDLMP

[7] = Pim1 ATP depletion assay, read-out: IC50 (μM) PIM1

Sequence of Pim2 kinase (Q9P1W9 whole entry): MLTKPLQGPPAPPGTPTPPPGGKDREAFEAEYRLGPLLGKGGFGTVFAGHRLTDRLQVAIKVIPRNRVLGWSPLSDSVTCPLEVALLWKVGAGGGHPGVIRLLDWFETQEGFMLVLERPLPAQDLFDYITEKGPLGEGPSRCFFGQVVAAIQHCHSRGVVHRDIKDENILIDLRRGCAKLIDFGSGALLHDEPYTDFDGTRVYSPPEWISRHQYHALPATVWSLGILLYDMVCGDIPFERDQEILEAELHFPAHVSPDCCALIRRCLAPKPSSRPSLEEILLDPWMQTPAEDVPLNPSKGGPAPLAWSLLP
Sequence of Pim1 kinase (P11309 whole entry): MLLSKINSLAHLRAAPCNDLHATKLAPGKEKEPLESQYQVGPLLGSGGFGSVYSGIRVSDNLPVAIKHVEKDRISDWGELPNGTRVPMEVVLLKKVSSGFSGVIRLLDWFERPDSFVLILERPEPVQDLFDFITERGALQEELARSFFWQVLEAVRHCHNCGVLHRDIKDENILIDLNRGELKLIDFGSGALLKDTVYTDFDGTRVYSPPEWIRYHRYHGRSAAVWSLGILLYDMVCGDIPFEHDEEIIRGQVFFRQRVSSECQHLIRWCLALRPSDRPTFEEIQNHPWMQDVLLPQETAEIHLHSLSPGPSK
Sequence of KDR kinase (P35968 20-1356): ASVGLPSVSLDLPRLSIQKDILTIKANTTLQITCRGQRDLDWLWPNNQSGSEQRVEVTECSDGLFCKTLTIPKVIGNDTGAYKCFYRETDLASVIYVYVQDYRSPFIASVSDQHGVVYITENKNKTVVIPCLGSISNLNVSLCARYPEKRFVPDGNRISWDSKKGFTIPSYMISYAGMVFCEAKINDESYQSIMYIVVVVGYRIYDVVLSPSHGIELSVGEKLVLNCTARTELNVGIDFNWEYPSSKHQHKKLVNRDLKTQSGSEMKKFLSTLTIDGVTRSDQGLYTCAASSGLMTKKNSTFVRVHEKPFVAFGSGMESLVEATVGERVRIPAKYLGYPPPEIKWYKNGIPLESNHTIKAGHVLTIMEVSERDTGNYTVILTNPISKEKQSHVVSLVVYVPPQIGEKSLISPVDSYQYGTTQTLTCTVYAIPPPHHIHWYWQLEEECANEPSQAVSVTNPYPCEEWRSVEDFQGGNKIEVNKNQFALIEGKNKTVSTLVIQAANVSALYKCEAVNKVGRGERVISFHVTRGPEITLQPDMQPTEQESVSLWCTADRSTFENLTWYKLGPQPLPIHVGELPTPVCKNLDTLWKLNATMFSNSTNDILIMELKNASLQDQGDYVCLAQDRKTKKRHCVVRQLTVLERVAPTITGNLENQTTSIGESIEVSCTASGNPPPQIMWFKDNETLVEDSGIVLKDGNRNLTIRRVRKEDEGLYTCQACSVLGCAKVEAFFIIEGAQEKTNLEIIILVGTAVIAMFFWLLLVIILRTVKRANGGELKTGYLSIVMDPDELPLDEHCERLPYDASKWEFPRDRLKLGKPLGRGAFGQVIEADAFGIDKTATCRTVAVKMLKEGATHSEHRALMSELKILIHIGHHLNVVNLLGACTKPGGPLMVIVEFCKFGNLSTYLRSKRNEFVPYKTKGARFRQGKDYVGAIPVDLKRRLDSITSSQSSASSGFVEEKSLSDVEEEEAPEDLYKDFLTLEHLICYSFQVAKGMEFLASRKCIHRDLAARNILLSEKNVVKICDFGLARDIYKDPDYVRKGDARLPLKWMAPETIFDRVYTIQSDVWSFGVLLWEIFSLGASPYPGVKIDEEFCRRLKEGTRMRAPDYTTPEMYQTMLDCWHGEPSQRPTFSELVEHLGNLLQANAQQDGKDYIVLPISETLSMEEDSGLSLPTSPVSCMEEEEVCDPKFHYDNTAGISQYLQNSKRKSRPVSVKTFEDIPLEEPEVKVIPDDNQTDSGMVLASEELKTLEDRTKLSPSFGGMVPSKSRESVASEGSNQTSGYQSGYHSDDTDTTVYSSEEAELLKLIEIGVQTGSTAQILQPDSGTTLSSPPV

Structure (SMILES)	IC50 [1]	EC50 ([2]; read-out: EC50 (μM) HEL 92.1.7)	IC50 ([3]; read-out: IC50 (μM) PIM2)	IC50 [4]	IC50 ([5]; read-out: IC50 (μM) PIM3)	IC50 [6]	IC50 [1, 7]	IC50 ([1]; Pim1 ATP depletion assay, read-out: PIM1 IC50)	EC50 ([2]; read-out: HEL 92.1.7 EC50)	IC50 ([3]; read-out: PIM2 IC50)	IC50 ([5]; read-out: PIM3 IC50)
Nc1nccnc1C(=O)Nc1cnccc1N1CCCCC1 [Example 123, 3-amino-N-(4-piperidin-1-yl-pyridin-3-yl)pyrazine-2-carbox-amide]	< 1 µM	< 1 µM	1 to 10 µM	1 to 10 µM	< 1 µM	< 1000 nM	–	–	–	–	–
Nc1nccnc1C(=O)Nc1[nH]c(=O)ncc1N1CCCCC1 [Example 130, 3-amino-N-(2-oxo-5-piperidin-1-yl-2,3-dihydropyrimidin-4-yl)-pyrazine-2-carboxamide]	–	5 to 10 µM	< 1 µM	1 to 10 µM	< 1 µM	< 1000 nM	< 1 µM	–	–	–	–
Nc1nc(N)c(C(=O)Nc2[nH]c(=O)ncc2N2CCCCC2)nc1Cl [Example 131, 3,5-diamino-6-chloro-N-(2-oxo-5-piperidin-1-yl-2,3-dihydro-pyrimidin-4-yl)pyrazine-2-carboxamide]	–	< 1 µM	< 1 µM	< 1 µM	< 1 µM	> 25000 nM	< 1 µM	–	–	–	–
Nc1nc(N)c(C(=O)Nc2[nH]c(=O)ncc2N2CCC(C(F)(F)F)CC2)nc1Cl [Example 159, 3,5-diamino-6-chloro-N-{2-oxo-5-[4-(trifluoromethyl)piperidin-1-yl]-2,3-dihydropyrimidin-4-yl}pyrazine-2-carboxamide]	–	5 to 10 µM	< 1 µM	< 1 µM	< 1 µM	> 25000 nM	< 1 µM	–	–	–	–
Nc1nc(N)c(C(=O)Nc2[nH]c(=O)ncc2N2CCC(F)(F)CC2)nc1Cl [Example 161, 3,5-diamino-6-chloro-N-[5-(4,4-difluoropiperidin-1-yl)-2-oxo-2,3-dihydropyrimidin-4-yl]-pyrazine-2-carboxamide]	–	> 10 µM	< 1 µM	< 1 µM	< 1 µM	> 25000 nM	< 1 µM	–	–	–	–
Nc1cccnc1C(=O)Nc1ccncc1N1CCCC(N)C1 (stereo not shown) [Example 174, 3-amino-N-[3-(3-aminopiperidin-1-yl)pyridin-4-yl]pyridine-2-carboxamide]	–	> 10 µM	< 1 µM	> 25 µM	< 1 µM	1000 to 10000 nM	< 1 µM	–	–	–	–
COc1ccccc1-c1cnc(N)c(C(=O)Nc2cnccc2N2CCCC(N)C2)n1 (stereo not shown) [Example 349, 3-amino-6-(2-methoxy-phenyl)-pyrazine-2-carboxylic acid (3-amino-3,4,5,6-tetra-hydro-2H-[1,4′]bipyridinyl-3′-yl)-amide]	–	< 1 µM	< 1 µM	–	< 1 µM	1000 to 10000 nM	< 1 µM	–	–	–	–
Nc1ncc(-c2ccccc2F)nc1C(=O)Nc1cnccc1N1CCCC(N)C1 (stereo not shown) [Example 350, 3-amino-6-(2-fluoro-phenyl)-pyrazine-2-carboxylic acid (3-amino-3,4,5,6-tetrahydro-2H-[1,4′]bipyridinyl-3′-yl)-amide]	–	< 1 µM	< 1 µM	–	< 1 µM	< 1000 nM	< 1 µM	–	–	–	–
Nc1ncc(-c2cccc(Cl)c2)nc1C(=O)Nc1cnccc1N1CCCC(N)C1 (stereo not shown) [Example 352, 3-amino-6-(3-chloro-phenyl)-pyrazine-2-carboxylic acid (3-amino-3,4,5,6-tetrahydro-2H-[1,4′]bipyridinyl-3′-yl)-amide]	–	< 1 µM	< 1 µM	–	< 1 µM	< 1000 nM	< 1 µM	–	–	–	–
Nc1ncc(-c2ccc(Cl)cc2)nc1C(=O)Nc1cnccc1N1CCCC(N)C1 (stereo not shown) [Example 353, 3-amino-6-(4-chloro-phenyl)-pyrazine-2-carboxylic acid (3-amino-3,4,5,6-tetrahydro-2H-[1,4′]bipyridinyl-3′-yl)-amide]	–	< 1 µM	< 1 µM	–	< 1 µM	< 1000 nM	< 1 µM	–	–	–	–
Nc1ncc(-c2cn[nH]c2)nc1C(=O)Nc1cnccc1N1CCCC(N)C1 (stereo not shown) [Example 355, 3-amino-6-(1H-pyrazol-4-yl)-pyrazine-2-carboxylic acid (3-amino-3,4,5,6-tetrahydro-2H-[1,4′]bipyridinyl-3′-yl)-amide]	–	> 10 µM	< 1 µM	–	< 1 µM	1000 to 10000 nM	< 1 µM	–	–	–	–
Nc1ncc(-c2cccnc2)nc1C(=O)Nc1cnccc1N1CCCC(N)C1 (stereo not shown) [Example 356, 3-amino-6-pyridin-3-yl-pyrazine-2-carboxylic acid (3-amino-3,4,5,6-tetrahydro-2H-[1,4′]bipyridinyl-3′-yl)-amide]	–	> 10 µM	< 1 µM	–	< 1 µM	1000 to 10000 nM	< 1 µM	–	–	–	–
Nc1ncc(-c2cncnc2)nc1C(=O)Nc1cnccc1N1CCCC(N)C1 (stereo not shown) [Example 357, 3-amino-6-pyrimidin-5-yl-pyrazine-2-carboxylic acid (3-amino-3,4,5,6-tetrahydro-2H-[1,4′]bipyridinyl-3′-yl)-amide]	–	1 to 5 µM	< 1 µM	–	< 1 µM	1000 to 10000 nM	< 1 µM	–	–	–	–
Nc1ncc(-c2ccccc2F)nc1C(=O)Nc1[nH]c(=O)ncc1N1CCCC(N)C1 (stereo not shown) [Example 401, 3-amino-6-(2-fluoro-phenyl)-pyrazine-2-carboxylic acid [5-(3-amino-piperidin-1-yl)-2-oxo-2,3-dihydro-pyrimidin-4-yl]-amide]	–	5 to 10 µM	< 1 µM	–	< 1 µM	< 1000 nM	< 1 µM	–	–	–	–
Nc1ncc(-c2ccccc2Cl)nc1C(=O)Nc1[nH]c(=O)ncc1N1CCCC(N)C1 (stereo not shown) [Example 402, 3-amino-6-(2-chloro-phenyl)-pyrazine-2-carboxylic acid [5-(3-amino-piperidin-1-yl)-2-oxo-2,3-dihydro-pyrimidin-4-yl]-amide]	–	5 to 10 µM	< 1 µM	–	< 1 µM	1000 to 10000 nM	< 1 µM	–	–	–	–
COc1ccc(F)cc1-c1ccc(N)c(C(=O)Nc2cnccc2N2CCC[C@H](N)C2)n1 [Example 427, 3-amino-6-(5-fluoro-2-methoxy-phenyl)-pyridine-2-carboxylic acid ((S)-3-amino-3,4,5,6-tetra-hydro-2H-[1,4′]bipyridinyl-3′-yl)-amide]	–	1 to 5 µM	< 1 µM	–	< 1 µM	10000 to 25000 nM	< 1 µM	–	–	–	–
Nc1ncc(-c2ccccc2F)nc1C(=O)Nc1[nH]c(=O)ncc1N1CCCCC1 [Example 592, 3-amino-6-(2-fluoro-phenyl)-pyrazine-2-carboxylic acid (2-oxo-5-piperidin-1-yl-2,3-dihydro-pyrimidin-4-yl)-amide]	–	–	–	–	–	1000 to 10000 nM	–	< 1 µM	< 1 µM	< 1 µM	< 1 µM
